What was measured:
[1] = tested on: LoVo (human colorectal adenocarcinoma) cell line; assay: MTS cytotoxicity assay, LoVo cell line; format: cell-based; conditions: 48 h of incubation
Protocol: (§1) LoVo, MDA-MB-231 and HUVEC human cell lines were purchased from American Type Culture Collection (ATCC). Cells were routinely maintained in culture either in culture flasks or seeded in plates, using Dulbecco’s modified Eagle medium/nutrient mixture F-12 (DMEM:F12) medium supplemented with […], 10% fetal calf serum (Sigma Aldrich, St. Louis, MO, USA), 100 units/mL penicillin, 100 μg/mL streptomycin and incubated at 37 °C in 5% CO2 humidified atmosphere.
(§2) Cytotoxicity studies were performed in 96-well microtiter plates with flat bottoms (Falcon, Teterboro, NJ, USA) using the CellTiter 96 Aqueous One Solution Cell Proliferation Assay (Promega, Madison, WI, USA), an MTS-based colorimetric assay. Metabolically active cells have the ability to reduce MTS [3-(4,5-dimethylthiazol-2-yl)-5-(3-carboxymethoxyphenyl)-2-(4-sulfophenyl)-2H-tetrazolium, inner salt], a yellow tetrazolium salt, to a colored formazan that is soluble in the culture medium. Briefly, 15 × 10^3 cells per well were cultured in 100 µL culture medium. After 24 h, adherent cells were treated with different concentrations of the studied compounds, as well as adriamycin (Adr) and cisplatin (Cis-Pt), used as positive controls for 24 h and 48 h, respectively. Each well was then filled with 20 µL of reagent containing MTS and PES (phenazine ethosulfate, a cationic dye with excellent chemical stability that binds to MTS and produces a stable solution). The resulting formazan was determined using a Tecan GENios Spectrophotometer (Tecan US, Durham, NC, USA) by measuring the absorbance at λ = 492 nm after incubation for 4 h at 37 °C with moderate agitation every 15 min. The cytotoxicity tests were performed in triplicate, with results reported as mean values with standard deviations (SD). The cytotoxicity of DMSO was also investigated under the same conditions, and no harmful effect was found at doses less than 1%.
(§3) Data were expressed as cell viability by comparing with untreated cells considered 100% viable, using the following formula:(1) Cell viability (%)=absorbance of treated cells−absorbance of culture medium/absorbance of untreated cells−absorbance of culture medium

[2] = tested on: HUVEC (human umbilical vein endothelial cells); assay: MTS cytotoxicity assay, HUVEC normal cell line; format: cell-based; conditions: 24 h of incubation
Protocol: as §1, §2, §3

EB–DNA system (CT-DNA) = assay: Competitive binding assay with ethidium bromide (EB) through fluorescence spectroscopy; parameters: species or system calf; conditions: EB 2 µM, CT-DNA 10 µM, compound 0–40 µM
Protocol: The fluorescence spectra were recorded using 1.6 mL samples containing 10 µM CT-DNA, 2 µM EB, and increasing amounts (0–40 µM with an increment of 5 µM) of tested compounds; the samples were prepared by keeping the components in contact for 10 min at room temperature, under continuous stirring and in the dark. The excitation wavelength was 500 nm, and the spectra were recorded between the wavelengths of 520 and 800 nm. A Jasco FP 6500 fluorometer and quartz cells with a 1 cm route length were employed. The classical Stern–Volmer equation (Equation (3)) was used to interpret the obtained data:(3) F0/F=1+KSV·[Q] F0 and F are the fluorescence intensities of the EB–DNA samples in the absence and presence of the tested compounds, respectively; KSV is the Stern–Volmer constant, which was computed as the slope from the plot of F0/F vs. [Q], where [Q] is the chemical concentration.
The binding ratio was plotted against the logarithm of the concentration in comparison with a control sample exposed solely to DMSO. (4) y=A1+(A2−A1)×x^n/K50^n+x^n
For fitting data points, the modified Hill function with offset (Origin®) was used: where y represents the binding ratio (F/F0), x represents the concentration, A1 represents the minimum of y values, A2 represents the maximum of y values, K50 represents the concentration corresponding to 50% binding or the half maximum binding constant, and n represents the Hill coefficient.

apotransferrin (apo-Tf) = molecular target: T1, apotransferrin (apo-Tf) (Homo sapiens, UniProt P02787); assay: Apo-Tf fluorescence quenching binding study; conditions: for Ka (association binding constant), Apo-Tf / n1 (Number of Binding Sites), Apo-Tf / Kd / fa (fraction of fluorophore accessible to the quencher), Apo-Tf / Kq (bimolecular quenching constant), Apo-Tf / n2 (Hill Coefficient), Apo-Tf: 298 K; for Kd: read-out: Kd (dissociation constant), Apo-Tf; for fa (fraction of fluorophore accessible to the quencher), Apo-Tf / Ksv* (Stern–Volmer quenching constant), Apo-Tf: compound 0–8 µM; for Ksv* (Stern–Volmer quenching constant), Apo-Tf: Tris-HCl pH 7.4, 298 K; for Kq (bimolecular quenching constant), Apo-Tf: from Ksv* with τ0 = 10^−8 s
T1 construct: purchased Sigma-Aldrich Chemical Co. (Schnelldorf, Germany)
Protocol: (§4) Using a Jasco FP 6500 spectrofluorometer (Jasco, Tokyo, Japan) and quartz cells with a 1 cm path length, the fluorescence spectra of HSA and apo-Tf were recorded in the presence and absence of the examined substances. The 2.5 mL samples containing 2.5 µM HSA or 1 µM apo-Tf were titrated by adding 5 µL of the tested substance at a time, a volume that corresponded to a 1 µM increase in concentration. The concentration range used for these experiments varied from 0 to 8 µM. The relevant spectra were collected in the emission domains of 300–500 nm (HSA) and 305–500 nm (apo-Tf) after 3 min of continuous stirring at room temperature, using excitation wavelengths of 280 nm (HSA) and 295 nm (apo-Tf).
(§5) Experiments were conducted in a pH = 7.4 Tris-HCl buffer (5 mM Tris-HCl/50 mM NaCl for HSA and 5 mM Tris-HCl/50 mM NaCl/25 mM NaHCO3 for apo-Tf).
(§6) The following modified Stern–Volmer equation has been used to calculate the Stern–Volmer constant, which will be denoted as KSV* in order to differentiate it from the Stern–Volmer constant calculated for the DNA binding experiments:(5) F0/F0−F=1/faKsv*[Q]+1/fa where F0 and F are the fluorescence intensities in the absence and presence of the tested compounds, fa is the fraction of fluorophore accessible to the quencher (the tested compounds), [Q] is the quencher concentration, and KSV* (M^−1) is the Stern–Volmer constant; the plot of F0/(F0 − F) against 1/[Q] yields KSV as the slope and fa as the y intercept.
(§7) Subsequently, the bimolecular quenching rate constant was obtained by using Equation (6):(6) Ksv^*=Kqτ0
(§8) Kq (M^−1·s^−1) is the bimolecular quenching rate constant and τ0 is the fluorophore’s lifespan in the absence of the investigated chemicals (10^−8 s). The value of Kq can be used to assess whether the quenching phenomena have an underlying static or dynamic mechanism.
(§9) Using the following equation, the affinity constant (Ka) and the number of binding sites (n) have been calculated: (7) lgF0−F/F=lgKa+nlg[Q]
(§10) The binding affinity, Kd, can be calculated using the quadratic function below:(8) F0−F/F0−Fb=[P]t+[Q]+Kd−([P]t+[Q]+Kd)^2−4[P]t[Q]/2[P]t where F and F0 are the fluorescence intensities of the protein in the presence and absence of the quencher, respectively, Fb is the fluorescence of a fully bound protein–quencher, [P]t is the total concentration of the protein, and [Q] is the concentration of the added quencher. Each binding isotherm was plotted against the total quencher concentration in solution as a function of bound to free protein (F/F0).
(§11) The isotherms were then fitted using the nonlinear regression function below:(9) F/F0= F1+(F2−F1)Kdn/Kdn+[Q]^n where n represents the Hill coefficient, F1 and F2 are the horizontal and vertical asymptotes, respectively. The Kd in Equation (9) is derived from the quadratic binding function (Equation (8)).
(§12) Data were collected in triplicate, averaged, and expressed as mean value ± standard deviation (SD). All graph fitting models were defined and built using OriginPro® 2018.

[3] = molecular target: T2, human serum albumin (HSA) (Homo sapiens, UniProt P02768); assay: HSA fluorescence quenching binding study; conditions: for Ka (association binding constant), HSA / n1 (Number of Binding Sites), HSA / n2 (Hill Coefficient), HSA / Kd / fa (fraction of fluorophore accessible to the quencher), HSA / Ksv* (Stern–Volmer quenching constant), HSA: HSA 2.5 µM; for Ka (association binding constant), HSA / n1 (Number of Binding Sites), HSA / n2 (Hill Coefficient), HSA / Kd / fa (fraction of fluorophore accessible to the quencher), HSA / Kq (bimolecular quenching constant), HSA: 298 K; for Kd: read-out: Kd (dissociation constant), HSA; for fa (fraction of fluorophore accessible to the quencher), HSA / Ksv* (Stern–Volmer quenching constant), HSA: compound 0–8 µM; for Ksv* (Stern–Volmer quenching constant), HSA: Tris-HCl pH 7.4, 298 K; for Kq (bimolecular quenching constant), HSA: from Ksv* with τ0 = 10^−8 s
T2 construct: purchased Sigma-Aldrich Chemical Co. (Schnelldorf, Germany)
Protocol: as §4, §5, §6, §7, §8, §9, §10, §11, §12

T1 sequence (P02787 20-698): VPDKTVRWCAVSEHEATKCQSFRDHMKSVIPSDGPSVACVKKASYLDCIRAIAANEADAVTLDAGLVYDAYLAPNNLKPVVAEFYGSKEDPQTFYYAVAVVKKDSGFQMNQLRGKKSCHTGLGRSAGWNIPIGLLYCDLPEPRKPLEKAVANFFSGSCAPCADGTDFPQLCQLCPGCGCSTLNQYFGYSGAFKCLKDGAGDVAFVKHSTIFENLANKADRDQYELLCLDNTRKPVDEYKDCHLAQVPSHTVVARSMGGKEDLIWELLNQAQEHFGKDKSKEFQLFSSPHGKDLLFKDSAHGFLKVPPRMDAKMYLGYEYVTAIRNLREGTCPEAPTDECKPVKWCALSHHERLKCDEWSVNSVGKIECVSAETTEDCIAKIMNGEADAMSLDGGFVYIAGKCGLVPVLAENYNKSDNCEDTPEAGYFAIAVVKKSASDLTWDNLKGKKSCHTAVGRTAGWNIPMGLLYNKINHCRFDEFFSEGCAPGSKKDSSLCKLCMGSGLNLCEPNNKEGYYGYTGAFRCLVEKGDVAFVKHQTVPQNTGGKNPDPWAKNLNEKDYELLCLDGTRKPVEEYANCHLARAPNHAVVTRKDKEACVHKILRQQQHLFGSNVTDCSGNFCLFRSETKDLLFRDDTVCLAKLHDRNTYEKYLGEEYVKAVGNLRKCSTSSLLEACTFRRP
T2 sequence (P02768 25-609): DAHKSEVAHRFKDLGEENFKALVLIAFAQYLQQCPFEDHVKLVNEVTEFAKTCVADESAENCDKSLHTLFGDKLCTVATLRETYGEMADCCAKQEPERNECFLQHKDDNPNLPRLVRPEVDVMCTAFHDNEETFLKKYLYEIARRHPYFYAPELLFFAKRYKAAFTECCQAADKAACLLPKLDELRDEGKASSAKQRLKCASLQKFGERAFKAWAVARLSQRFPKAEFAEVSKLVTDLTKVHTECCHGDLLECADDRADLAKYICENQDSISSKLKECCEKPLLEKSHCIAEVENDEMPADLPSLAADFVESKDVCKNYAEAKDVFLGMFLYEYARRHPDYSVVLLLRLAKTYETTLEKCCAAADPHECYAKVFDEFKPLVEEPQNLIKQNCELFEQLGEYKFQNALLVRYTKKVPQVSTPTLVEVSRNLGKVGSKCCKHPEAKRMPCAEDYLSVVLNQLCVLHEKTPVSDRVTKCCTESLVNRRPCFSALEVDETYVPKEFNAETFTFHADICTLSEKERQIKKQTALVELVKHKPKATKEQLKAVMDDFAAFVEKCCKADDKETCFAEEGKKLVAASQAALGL

| Molecule | IC50 [1] [µM] | IC50 (μM) LoVo [1] | IC50 [2] [µM] | EB Displacement Assay K50 (half maximum binding constant) (EB–DNA system (CT-DNA)) [µM] | KSV, Stern–Volmer quenching constant (EB–DNA) (EB–DNA system (CT-DNA)) | Ka (association binding constant), Apo-Tf (apotransferrin (apo-Tf); apo-Tf 1 µM) | n1 (Number of Binding Sites), Apo-Tf (apotransferrin (apo-Tf); apo-Tf 1 µM) | Kd (apotransferrin (apo-Tf); apo-Tf 1 µM) [µM] | fa (fraction of fluorophore accessible to the quencher), Apo-Tf (apotransferrin (apo-Tf); apo-Tf 1 µM) | Ksv* (Stern–Volmer quenching constant), Apo-Tf (apotransferrin (apo-Tf); apo-Tf 1 µM) | Kq (bimolecular quenching constant), Apo-Tf (apotransferrin (apo-Tf)) [M⁻¹ s⁻¹] | Ka (association binding constant), HSA [3] | n1 (Number of Binding Sites), HSA [3] | n2 (Hill Coefficient), HSA [3] | Kd [3] [µM] | fa (fraction of fluorophore accessible to the quencher), HSA [3] | Ksv* (Stern–Volmer quenching constant), HSA [3] | Kq (bimolecular quenching constant), HSA [3] [M⁻¹ s⁻¹] | n2 (Hill Coefficient), Apo-Tf (apotransferrin (apo-Tf); apo-Tf 1 µM) | quenching effect on apo-Tf fluorescence peak (apotransferrin (apo-Tf); apo-Tf 1 µM, compound up to 8 µM) [%] |
| --- | --- | --- | --- | --- | --- | --- | --- | --- | --- | --- | --- | --- | --- | --- | --- | --- | --- | --- | --- | --- |
| CCn1cc(C(=O)[O-])c(=O)c2ccc(C)nc21.CCn1cc(C(=O)[O-])c(=O)c2ccc(C)nc21.O.[OH-].[Tb+3] [Tb(nal)2, Tb(C12H11N2O3)2(OH)(H2O)·1.5H2O] | > 200 | not toxic | > 200 | 34.69 ± 11.18 | 9.14 ± 0.16 M^−1 (×10^3) | (0.32 ± 0.08) × 10^4 M^−1 | 0.71 ± 0.02 | 8.01 ± 4.3 | 0.65 ± 0.02 | (2.23 ± 0.15) × 10^5 M^−1 | 2.23e+13 | (11.52 ± 2.87) × 10^5 M^−1 | 1.12 ± 0.02 | 1.52 ± 0.09 | 3.99 ± 0.14 | 1.13 ± 0.02 | (1.92 ± 0.08) × 10^5 M^−1 | 1.92e+13 | – | – |
| Tb(C12H11N2O3)3(H2O)2·1.5H2O [Tb(nal)3] | 25.6 ± 6.97 | – | 96.2 ± 48.8 | 31.96 ± 10.16 | 8.35 ± 0.11 M^−1 (×10^3) | (1.63 ± 0.42) × 10^4 M^−1 | 0.83 ± 0.02 | 5.76 ± 2.6 | 0.68 ± 0.01 | (2.70 ± 0.11) × 10^5 M^−1 | 2.7e+13 | (31.26 ± 9.66) × 10^5 M^−1 | 1.18 ± 0.02 | 0.89 ± 0.35 | 4.61 ± 1.67 | 1.13 ± 0.02 | – | 2.39e+13 | – | – |
| Eu(C12H11N2O3)3(H2O)2·2.5H2O [Eu(nal)3] | 26.9 ± 5.72 | – | > 200 | 30.96 ± 10.85 | 9.62 ± 0.10 M^−1 (×10^3) | (2.25 ± 1.01) × 10^4 M^−1 | 0.84 ± 0.03 | 3.85 ± 0.29 | 0.80 ± 0.02 | (2.21 ± 0.13) × 10^5 M^−1 | 2.21e+13 | (21.59 ± 2.04) × 10^5 M^−1 | 1.13 ± 0.00 | 1.17 ± 0.27 | 2.67 ± 0.21 | 1.13 ± 0.01 | (2.89 ± 0.11) × 10^5 M^−1 | 2.89e+13 | 1.58 ± 0.23 | 48 |
| Gd(C12H11N2O3)3(H2O)2·1.5H2O [Gd(nal)3] | 28.4 ± 7.95 | – | 58.4 ± 29.3 | 31.88 ± 7.73 | 9.86 ± 0.19 M^−1 (×10^3) | (2.63 ± 0.39) × 10^4 M^−1 | 0.87 ± 0.01 | 5.86 ± 0.72 | 0.82 ± 0.02 | (1.78 ± 0.07) × 10^5 M^−1 | 1.78e+13 | (19.61 ± 1.83) × 10^5 M^−1 | 1.14 ± 0.01 | 1.35 ± 0.12 | 3.27 ± 0.11 | 1.10 ± 0.00 | (2.69 ± 0.05) × 10^5 M^−1 | 2.69e+13 | 1.22 ± 0.12 | – |

Reference: publication PMC9412414, “A Study on Repositioning Nalidixic Acid via Lanthanide Complexation: Synthesis, Characterization, Cytotoxicity and DNA/Protein Binding Studies” (Pharmaceuticals, 2022)
